Read-outs that look alike come from different tables or passages of the source.

Common to all, as to format: cell-based
Series [1] concerns NO production in macrophage RAW 264.7 cells. In words: Inhibition of LPS-induced NO production in RAW 264.7 macrophages (Griess). The settings on record: Mus musculus. As to the method: (§1) RAW 264.7 cells were stocked in Dulbecco’s Modified Essential and grown at the condition of 37 °C in DMEM supplemented with 10% heat-inactivated FBS, streptomycin sulfate (100 µg/mL), and penicillin (100 units/mL) in a humidified environment of 5% CO2. The RAW 264.7 cells were pre-incubated every two days.
The RAW 264.7 cells were stimulated with or without 1 μg/mL of LPS (lipopolysaccharide), which was purchased from Sigma Chemical Co. (St. Louis, MO, USA), for 24 h with or without 0.5% DMSO, celastrol, and isolated compounds at the indicated concentrations. The culture supernatant (100 μL) was then reacted with 100 μL of Griess reagent. After the Griess assay, the remaining cells were used to screen for their viability using colorimetric assay-MTT (Sigma Chemical Co., St. Louis, MO, USA).
(Griess reagent forms a coloured azo dye with nitrite.)

A short description of series [2]: Cell viability assay (MTT) on RAW 264.7 cells. The settings on record: mouse, read-out: cytotoxicity toward RAW 264.7 cells IC50. Here is the method: as §1
The cell viability assay was used to determine the cytotoxic effect of the isolated compounds on RAW 264.7 cells. At a density of 1 × 10^5 cells per well, RAW 264.7 cells were seeded on a 96-well plate and allowed to adhere for 4 h. Then, the cells were treated with 0.5% DMSO, celastrol, and isolated compounds at the indicated concentrations. Celastrol was used as a positive control. After incubating 24 h, the viable cells were measured with a colorimetric assay based on the mitochondria’s ability in viable cells to reduce MTT [18]. The viability cells were treated with vehicle only and were defined as 100% viable. [OD570 (treated cell culture) × 100]/OD570 was the formula used to determine the percentage of macrophage surviving cells after treatment (vehicle control).

The test system of series [3] is Hep G2 cells. In words: Cytotoxicity assay (MTT) against Hep G2 cell line. The settings on record: Homo sapiens. Here is the method: According to a previous procedure, the cytotoxic evaluation of 1–8 against the growth of human hepatocellular carcinoma (Hep G2) cell line was carried out. The positive control was ellipticine, a powerful anticancer medication with various modes of action. The cancer cells were grown in Dulbecco’s Modified Essential Medium (DMEM) at 37 °C in a 5 % CO2 environment with 10% fetal bovine serum (FBS), 1% penicillin and streptomycin, and 1% L-glutamine. The investigated compounds were added at concentrations ranging from 0.5 to 128 µg/mL by dissolving in DMSO (20 mg/mL), and the incubation was carried out once more for 72 h under the same conditions. Following the procedure, an MTT solution (10 µL, 5 mg/mL) was added to each well. The percentage of cell viability vs. sample concentration was plotted using SigmaPlot 10 (Systat Software Inc., San Jose, CA, USA) to calculate the IC50 values.

Setting [4] is: RAW264.7, RAW 264.7 cells, 1 μg/mL LPS, 24 h, Griess reagent, mean of three experiments ± SD, read-out: NO Production (IC50).
[5] abbreviates: HepG2, 72 h, read-out: Cytotoxicity (IC50, µM).

A word on the IC50: it is the point on the concentration scale where inhibition reaches its midpoint. On to `CC1=C(O)C(=O)C=C2C1=CC=C1[C@@]2(C)CC[C@@]2(C)[C@@H]3C[C@](C)(C(=O)O)CC[C@]3(C)CC[C@]12C` [Celastrol, celastrol, reference compound], for which, in series [1] (RAW264.7, 24 h, read-out: NO Production (IC50, µM)), the IC50 worked out at 1 ± 0.1 µM.
As for `COc1ccc(-c2coc3c4c(c(OC)cc3c2=O)OC(C)(C)CC4)cc1` [Compound 1, placovinone A], the IC50 at 24 h in series [2] turned out to be 79.2 µM. For the same molecule, the IC50 in series [1] (setting [4]) was found to be 13.7 ± 0.5 µM; in series [3] (setting [5]), 8 ± 0.2 µM.
Take `COc1cc(OC)c(C(=O)C(=O)c2cc(OC)c3c(c2O)C=CC(C)(C)O3)cc1OC` [Compound 2, placovinone B]: the values for the IC50 in series [1] (setting [4]) and in series [3] (setting [5]) were 31 ± 0.3 µM and 19.8 ± 1.5 µM, respectively.
On to `COc1cc(OC)c(OC)cc1CC(=O)c1cc(OC)c2c(c1O)C=CC(C)(C)O2` [Compound 3, placovinone C], for which the figures for the IC50 in series [1] (setting [4]) and in series [3] (setting [5]) were 47.4 ± 0.3 µM and 22.9 ± 0.5 µM, respectively.
Regarding `COc1ccc(CC(=O)c2cc(OC)c3c(c2O)C=CC(C)(C)O3)cc1` [Compound 4, placovinone D], the IC50 at 24 h in series [2] worked out at 42.6 µM. Further, the IC50 was 15.5 ± 0.4 µM in series [1] (setting [4]) and 23.4 ± 0.5 µM in series [3] (setting [5]).
As for `COc1cc2c(cc1-c1coc3c4c(c(OC)cc3c1=O)OC(C)(C)C=C4)OCO2` [Compound 5, ichthynone], the IC50 in series [1] (setting [4]) is > 100 µM; in series [3] (setting [5]), 99.1 ± 0.9 µM.
As to `COc1cc2c(=O)c(-c3ccc4c(c3)OCO4)coc2c2c1OC(C)(C)C=C2` [Compound 6, durmillone], the values for the IC50 in series [1] (setting [4]) and in series [3] (setting [5]) were > 100 µM and 71.6 ± 0.6 µM, respectively.
For `CC1(C)C=Cc2c(ccc3c(=O)c(-c4ccc5c(c4)OCO5)coc23)O1` [Compound 7, calopogoniumisoflavone B], the IC50 in series [1] (setting [4]) is > 100 µM; in series [3] (setting [5]), 66.6 ± 0.5 µM.
On to `COc1ccc(-c2coc3c4c(ccc3c2=O)OC(C)(C)C=C4)cc1OC` [Compound 8, 4′,5′-dimethoxy-6,6-dimethylpyranoisoflavone], for which the IC50 stood at 54.7 ± 0.2 µM in series [1] (setting [4]) and 35.6 ± 0.3 µM in series [3] (setting [5]).
With `Cc1c2ccncc2c(C)c2c1[nH]c1ccccc12` [Ellipticine, ellipticine, reference compound], the IC50 in series [3] (HepG2, Hep G2 cells, 72 h, MTT, mean of three experiments ± SD, read-out: Cytotoxicity (IC50)) was 0.43 ± 0.03 µM.

The values above are taken from article PMC9317696, “New Benzil and Isoflavone Derivatives with Cytotoxic and NO Production Inhibitory Activities from Placolobium vietnamense” (Molecules, 2022).
